Reference: ChEMBL document CHEMBL1201862, “PubChem BioAssay data set” (2004)
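Grown in 96-well plates, cells were treated for 48 hours with each compound at five concentrations. Insufficient inhibition: endpoint recorded as highest concentration tested. At the GI50, growth is halved.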 Calls of active or inactive are those of the source. Cut-off read from the data, not from the text of the source: active = GI50 up to about 1.1 µM and inactive = higher.

Legend:
Assay in all cases: inhibition of tumour cell growth, NCI panel, 48 h
XF498 = system: XF498
SNB-78 = system: SNB-78
HOP-18 = system: HOP-18
DMS-273 = system: DMS-273
DLD-1 = system: DLD-1
DMS-114 = system: DMS-114
M19-MEL = system: M19-MEL
RXF 631 = system: RXF 631
LXFL 529 = system: LXFL 529

Compound | GI50 (XF498) | GI50 (SNB-78) | GI50 (HOP-18) | GI50 (DMS-273) | GI50 (DLD-1) | GI50 (DMS-114) | GI50 (M19-MEL) | GI50 (RXF 631) | GI50 (LXFL 529)
OC(CBr)C(O)C(O)C(O)CBr (centres undefined) | 80.5 µM (inactive) | > 100 µM (inactive) | > 100 µM (inactive) | 26.6 µM (inactive) | > 100 µM (inactive) | 42.4 µM (inactive) | > 100 µM (inactive) |  | 
COc1ccc2c(c1)CCCN2CCCCCCCCCCN(CCC(C)C)CCC(C)C | 7.89 µM (inactive) | 16.8 µM (inactive) | 12.1 µM (inactive) | 10.1 µM (inactive) | 10.5 µM (inactive) | 4.97 µM (inactive) | 15.3 µM (inactive) | 8.87 µM (inactive) | 10.2 µM (inactive)
Cc1cccc(C)c1NC(=O)CCc1nnc2s/c(=C\c3ccc(N(C)C)cc3)c(=O)n12 | > 100 µM (inactive) | > 100 µM (inactive) |  | > 100 µM (inactive) | > 100 µM (inactive) | 50.6 µM (inactive) |  | > 100 µM (inactive) | > 100 µM (inactive)
COC(=O)NNc1c([N+](=O)[O-])cnn(-c2ccccc2)c1=O |  |  | 2.82 µM (inactive) | 1.98 µM (inactive) | 2.06 µM (inactive) | 3.37 µM (inactive) | 1.87 µM (inactive) | 2.08 µM (inactive) | 1.73 µM (inactive)
COc1cc(OC)c(OC)cc1/C=C\c1ccnc2ccccc12 |  | 1.2 µM (inactive) |  | 0.317 µM (active) | 0.944 µM (active) | 0.649 µM (active) | 0.851 µM (active) |  | 1.45 µM (inactive)
CC(C)OP(=O)(OC(C)C)c1nc(-c2ccccc2)n(-c2ccc([N+](=O)[O-])cc2)n1 | > 100 µM (inactive) |  |  | > 100 µM (inactive) | > 100 µM (inactive) | > 100 µM (inactive) | > 100 µM (inactive) |  | > 100 µM (inactive)
CC(=O)O[C@H]1C=CC(=O)C(C)CC1C (some centres undefined) | > 100 µM (inactive) | > 100 µM (inactive) |  | > 100 µM (inactive) | 64 µM (inactive) | > 100 µM (inactive) | > 100 µM (inactive) | > 100 µM (inactive) | > 100 µM (inactive)
Cn1nc2ccc3nccc(N(CCO)CCO)c3c2n1 | > 100 µM (inactive) | > 100 µM (inactive) | > 100 µM (inactive) | > 100 µM (inactive) | > 100 µM (inactive) |  | > 100 µM (inactive) |  | > 100 µM (inactive)
O=c1[nH]c(C2CCCCC2)nc2ccc(Cl)cc12 |  | > 100 µM (inactive) |  | > 100 µM (inactive) |  | > 100 µM (inactive) | > 100 µM (inactive) |  | > 100 µM (inactive)
COc1ccc(/C(Cl)=C(\C=O)c2ccc(Cl)c(Cl)c2)cc1 | 10.8 µM (inactive) | 11 µM (inactive) | 14.7 µM (inactive) | 13.1 µM (inactive) | 10.7 µM (inactive) | 4.06 µM (inactive) | 13.1 µM (inactive) |  | 5.81 µM (inactive)
[O-][S+]1c2ccccc2N=C(c2ccc(Cl)cc2)CC1c1cccs1 (centres undefined) |  | 35 µM (inactive) | 29.2 µM (inactive) | 14.6 µM (inactive) | 12.2 µM (inactive) | 14.6 µM (inactive) | 17.7 µM (inactive) |  | 
O=C(Nc1ccc(/N=N/c2ccccc2)cc1)Sc1ccccc1C(=O)O |  | > 100 µM (inactive) |  | > 100 µM (inactive) |  |  |  |  | > 100 µM (inactive)
O=C(NCCCOC(=O)CCCCCCCCC(=O)OCCCNC(=O)NC(=O)c1c[nH]c(=O)[nH]c1=O)NC(=O)c1c[nH]c(=O)[nH]c1=O | > 100 µM (inactive) | > 100 µM (inactive) | 1.49 µM (inactive) | > 100 µM (inactive) | > 100 µM (inactive) |  | > 100 µM (inactive) | > 100 µM (inactive) | > 100 µM (inactive)
CC1NCCc2c1[nH]c1cc(O)ccc21 (centres undefined) | > 100 µM (inactive) | > 100 µM (inactive) | > 100 µM (inactive) |  | > 100 µM (inactive) | > 100 µM (inactive) | > 100 µM (inactive) |  | > 100 µM (inactive)
Nc1nc(O)c2ncn(C3OC(CO)C(O)C3O)c2n1 (centres undefined) |  | 95.3 µM (inactive) | 49.8 µM (inactive) | 58.7 µM (inactive) | 65.3 µM (inactive) | 6.15 µM (inactive) | 16 µM (inactive) |  | 
FC(F)(F)c1ccc2c(c1)N(CCCNCCN1CCOCC1)c1ccccc1S2 | 3.81 µM (inactive) | 11.6 µM (inactive) |  | 16.8 µM (inactive) | 16.2 µM (inactive) |  | 7.14 µM (inactive) |  | 12.7 µM (inactive)
C/C(=N/NC(=O)CC(=O)N(C(=O)c1ccccc1Cl)c1ccc(C)cc1)c1cc2ccccc2oc1=O | > 100 µM (inactive) | > 100 µM (inactive) | > 100 µM (inactive) | > 100 µM (inactive) | > 100 µM (inactive) | 49.8 µM (inactive) | > 100 µM (inactive) | > 100 µM (inactive) | > 100 µM (inactive)
O=S(OC12CC3CC(CC(C3)C1)C2)c1cc(Cl)cc(Cl)c1OCc1ccccc1 (centres undefined) | > 100 µM (inactive) | > 100 µM (inactive) |  |  | > 100 µM (inactive) | 73.8 µM (inactive) | > 100 µM (inactive) | > 100 µM (inactive) | > 100 µM (inactive)
CC1=C(C(=O)Nc2ccc(Cl)c(Cl)c2)C(c2ccc([N+](=O)[O-])cc2)C(C(=O)Nc2ccc(Cl)c(Cl)c2)=C(C)N1 | 1.44 µM (inactive) | 2.82 µM (inactive) | 3.6 µM (inactive) | 2.91 µM (inactive) | 3.41 µM (inactive) | 2.88 µM (inactive) | 1.82 µM (inactive) | 2.04 µM (inactive) | 2.77 µM (inactive)
O=C1CC2C(=O)N(Cc3ccccc3)C1C(S(=O)(=O)c1ccccc1)C2S(=O)(=O)c1ccccc1 (centres undefined) | 1.86 µM (inactive) | 11.2 µM (inactive) | 3.78 µM (inactive) | 5.46 µM (inactive) | 1.59 µM (inactive) | 1.29 µM (inactive) | 2.06 µM (inactive) | 12.5 µM (inactive) | 1.31 µM (inactive)
FC(F)(F)C1(Cl)C(Cl)(c2ccccc2)C1(Cl)c1ccccc1 (centres undefined) | 15.7 µM (inactive) | 17.8 µM (inactive) | 11.1 µM (inactive) | 14.9 µM (inactive) | 15.4 µM (inactive) | 15.6 µM (inactive) | 15.6 µM (inactive) |  | 16.3 µM (inactive)
CC(=O)NC1CC2Oc3ccc(C)cc3C(C)(O2)C1O (centres undefined) | > 100 µM (inactive) |  | > 100 µM (inactive) | > 100 µM (inactive) | > 100 µM (inactive) | > 100 µM (inactive) | > 100 µM (inactive) |  | 
Brc1nc2c3ccccc3ncn2c1Br | 25.8 µM (inactive) | 36.7 µM (inactive) | 14.4 µM (inactive) | 30.8 µM (inactive) | 43.6 µM (inactive) | 33.4 µM (inactive) | 33.5 µM (inactive) | 39.4 µM (inactive) | 29.9 µM (inactive)
CCCCS(=O)(=O)Nc1ccc(Nc2c3ccccc3nc3ccccc23)c(OC)c1 | 2.19 µM (inactive) | 5.5 µM (inactive) | 7.52 µM (inactive) | 0.395 µM (active) | 7.6 µM (inactive) |  | 4.61 µM (inactive) |  | 
